From the CheMixHub viscosity set
± gives the uncertainty stated by the source.

Test: xn = mol fraction of the nth substance listed

CC(=O)O + O
viscosity (293.15 K, 101 kPa, x1 = 0.0322): 1.205 ± 0.031 mPa·s
viscosity (293.15 K, 101 kPa, x1 = 0.0731): 1.433 ± 0.036 mPa·s
viscosity (293.15 K, 101 kPa, x1 = 0.1134): 1.649 ± 0.042 mPa·s
viscosity (293.15 K, 101 kPa, x1 = 0.1667): 1.892 ± 0.048 mPa·s
viscosity (293.15 K, 101 kPa, x1 = 0.2308): 2.14 ± 0.054 mPa·s
viscosity (293.15 K, 101 kPa, x1 = 0.3102): 2.385 ± 0.061 mPa·s
viscosity (293.15 K, 101 kPa, x1 = 0.4112): 2.607 ± 0.066 mPa·s
viscosity (293.15 K, 101 kPa, x1 = 0.7286): 2.39 ± 0.06 mPa·s
viscosity (293.15 K, 101.33 kPa, x1 = 0.03226): 1.237 ± 0.012 mPa·s
viscosity (293.15 K, 101.33 kPa, x1 = 0.1139): 1.696 ± 0.017 mPa·s
viscosity (293.15 K, 101.33 kPa, x1 = 0.2308): 2.188 ± 0.022 mPa·s
viscosity (293.15 K, 101.33 kPa, x1 = 0.4118): 2.686 ± 0.027 mPa·s
viscosity (293.15 K, 101.33 kPa, x1 = 0.5011): 2.784 ± 0.028 mPa·s
viscosity (293.15 K, 101.33 kPa, x1 = 0.5454): 2.781 ± 0.028 mPa·s
viscosity (293.15 K, 101.33 kPa, x2 = 0.0132): 1.455 ± 0.015 mPa·s
viscosity (295.3 K, 101.33 kPa, x1 = 0.0321): 1.135 ± 0.0091 mPa·s
viscosity (298.15 K, 101 kPa, x1 = 0.0322): 1.073 ± 0.027 mPa·s
viscosity (298.15 K, 101 kPa, x1 = 0.0731): 1.27 ± 0.032 mPa·s
viscosity (298.15 K, 101 kPa, x1 = 0.1134): 1.452 ± 0.037 mPa·s
viscosity (298.15 K, 101 kPa, x1 = 0.1667): 1.644 ± 0.042 mPa·s
viscosity (298.15 K, 101 kPa, x1 = 0.2308): 1.866 ± 0.048 mPa·s
viscosity (298.15 K, 101 kPa, x1 = 0.3102): 2.086 ± 0.053 mPa·s
viscosity (298.15 K, 101 kPa, x1 = 0.4112): 2.272 ± 0.058 mPa·s
viscosity (298.15 K, 101 kPa, x1 = 0.5449): 2.353 ± 0.06 mPa·s
viscosity (298.15 K, 101 kPa, x1 = 0.7286): 2.105 ± 0.054 mPa·s
viscosity (298.15 K, 101.33 kPa, x1 = 0.016): 0.988 ± 0.039 mPa·s
viscosity (298.15 K, 101.33 kPa, x1 = 0.034): 1.08 ± 0.041 mPa·s
viscosity (298.15 K, 101.33 kPa, x1 = 0.0684): 1.232 ± 0.012 mPa·s
viscosity (298.15 K, 101.33 kPa, x1 = 0.07): 1.254 ± 0.043 mPa·s
viscosity (298.15 K, 101.33 kPa, x1 = 0.1242): 1.437 ± 0.011 mPa·s
viscosity (298.15 K, 101.33 kPa, x1 = 0.1648): 1.633 ± 0.016 mPa·s
viscosity (298.15 K, 101.33 kPa, x1 = 0.2268): 1.824 ± 0.016 mPa·s
viscosity (298.15 K, 101.33 kPa, x1 = 0.2289): 1.867 ± 0.016 mPa·s
viscosity (298.15 K, 101.33 kPa, x1 = 0.2844): 1.986 ± 0.016 mPa·s
viscosity (298.15 K, 101.33 kPa, x1 = 0.3218): 2.091 ± 0.021 mPa·s
viscosity (298.15 K, 101.33 kPa, x1 = 0.3273): 2.103 ± 0.017 mPa·s
viscosity (298.15 K, 101.33 kPa, x1 = 0.4187): 2.248 ± 0.022 mPa·s
viscosity (298.15 K, 101.33 kPa, x1 = 0.436): 2.333 ± 0.018 mPa·s
viscosity (298.15 K, 101.33 kPa, x1 = 0.4699): 2.305 ± 0.023 mPa·s
viscosity (298.15 K, 101.33 kPa, x1 = 0.5177): 2.374 ± 0.019 mPa·s
viscosity (298.15 K, 101.33 kPa, x1 = 0.5367): 2.254 ± 0.023 mPa·s
viscosity (298.15 K, 101.33 kPa, x1 = 0.737): 2.06 ± 0.021 mPa·s
viscosity (298.15 K, 101.33 kPa, x1 = 0.8576): 1.689 ± 0.017 mPa·s
viscosity (298.15 K, 101.33 kPa, x1 = 0.9548): 1.223 ± 0.01 mPa·s
viscosity (300.27 K, 101.33 kPa, x1 = 0.03428): 1.014 ± 0.0081 mPa·s
viscosity (303.15 K, 101 kPa, x1 = 0.0322): 0.953 ± 0.024 mPa·s
viscosity (303.15 K, 101 kPa, x1 = 0.0731): 1.12 ± 0.029 mPa·s
viscosity (303.15 K, 101 kPa, x1 = 0.1134): 1.276 ± 0.033 mPa·s
viscosity (303.15 K, 101 kPa, x1 = 0.1667): 1.452 ± 0.037 mPa·s
viscosity (303.15 K, 101 kPa, x1 = 0.2308): 1.634 ± 0.042 mPa·s
viscosity (303.15 K, 101 kPa, x1 = 0.3102): 1.816 ± 0.046 mPa·s
viscosity (303.15 K, 101 kPa, x1 = 0.4112): 1.977 ± 0.05 mPa·s
viscosity (303.15 K, 101 kPa, x1 = 0.7286): 1.847 ± 0.047 mPa·s
viscosity (303.55 K, 101.33 kPa, x1 = 0.0321): 0.956 ± 0.0076 mPa·s
viscosity (303.65 K, 101.33 kPa, x1 = 0.03428): 0.939 ± 0.0075 mPa·s
viscosity (308.15 K, 101 kPa, x1 = 0.0322): 0.855 ± 0.022 mPa·s
viscosity (308.15 K, 101 kPa, x1 = 0.0731): 1.003 ± 0.025 mPa·s
viscosity (308.15 K, 101 kPa, x1 = 0.1134): 1.135 ± 0.029 mPa·s
viscosity (308.15 K, 101 kPa, x1 = 0.1667): 1.289 ± 0.033 mPa·s
viscosity (308.15 K, 101 kPa, x1 = 0.2308): 1.447 ± 0.037 mPa·s
viscosity (308.15 K, 101 kPa, x1 = 0.3102): 1.612 ± 0.041 mPa·s
viscosity (308.15 K, 101 kPa, x1 = 0.4112): 1.76 ± 0.045 mPa·s
viscosity (308.15 K, 101 kPa, x1 = 0.5449): 1.813 ± 0.046 mPa·s
viscosity (308.15 K, 101 kPa, x1 = 0.7286): 1.653 ± 0.042 mPa·s
viscosity (313.15 K, 100 kPa, x1 = 0.1001): 0.997 ± 0.056 mPa·s
viscosity (313.15 K, 100 kPa, x1 = 0.2001): 1.278 ± 0.07 mPa·s
viscosity (313.15 K, 100 kPa, x1 = 0.2998): 1.467 ± 0.08 mPa·s
viscosity (313.15 K, 100 kPa, x1 = 0.3999): 1.564 ± 0.084 mPa·s
viscosity (313.15 K, 100 kPa, x1 = 0.4996): 1.585 ± 0.084 mPa·s
viscosity (313.15 K, 100 kPa, x1 = 0.5999): 1.548 ± 0.081 mPa·s
viscosity (313.15 K, 100 kPa, x1 = 0.7002): 1.461 ± 0.076 mPa·s
viscosity (313.15 K, 100 kPa, x1 = 0.7992): 1.328 ± 0.068 mPa·s
viscosity (313.15 K, 100 kPa, x1 = 0.9001): 1.14 ± 0.058 mPa·s
viscosity (313.15 K, 101 kPa, x1 = 0.0322): 0.775 ± 0.02 mPa·s
viscosity (313.15 K, 101 kPa, x1 = 0.0731): 0.903 ± 0.023 mPa·s
viscosity (313.15 K, 101 kPa, x1 = 0.1134): 1.014 ± 0.026 mPa·s
viscosity (313.15 K, 101 kPa, x1 = 0.1667): 1.158 ± 0.029 mPa·s
viscosity (313.15 K, 101 kPa, x1 = 0.2308): 1.297 ± 0.033 mPa·s
viscosity (313.15 K, 101 kPa, x1 = 0.3102): 1.426 ± 0.036 mPa·s
viscosity (313.15 K, 101 kPa, x1 = 0.4112): 1.549 ± 0.039 mPa·s
viscosity (313.15 K, 101 kPa, x1 = 0.5449): 1.614 ± 0.041 mPa·s
viscosity (313.15 K, 101 kPa, x1 = 0.7286): 1.48 ± 0.038 mPa·s
viscosity (318.15 K, 101 kPa, x1 = 0.0322): 0.709 ± 0.018 mPa·s
viscosity (318.15 K, 101 kPa, x1 = 0.0731): 0.819 ± 0.021 mPa·s
viscosity (318.15 K, 101 kPa, x1 = 0.1134): 0.922 ± 0.023 mPa·s
viscosity (318.15 K, 101 kPa, x1 = 0.1667): 1.041 ± 0.026 mPa·s
viscosity (318.15 K, 101 kPa, x1 = 0.2308): 1.165 ± 0.03 mPa·s
viscosity (318.15 K, 101 kPa, x1 = 0.3102): 1.286 ± 0.033 mPa·s
viscosity (318.15 K, 101 kPa, x1 = 0.4112): 1.397 ± 0.035 mPa·s
viscosity (318.15 K, 101 kPa, x1 = 0.5449): 1.453 ± 0.037 mPa·s
viscosity (318.15 K, 101 kPa, x1 = 0.7286): 1.34 ± 0.034 mPa·s
viscosity (323.15 K, 101 kPa, x1 = 0.0322): 0.644 ± 0.016 mPa·s
viscosity (323.15 K, 101 kPa, x1 = 0.0731): 0.742 ± 0.019 mPa·s
viscosity (323.15 K, 101 kPa, x1 = 0.1134): 0.842 ± 0.021 mPa·s
viscosity (323.15 K, 101 kPa, x1 = 0.1667): 0.943 ± 0.024 mPa·s
viscosity (323.15 K, 101 kPa, x1 = 0.2308): 1.052 ± 0.027 mPa·s
viscosity (323.15 K, 101 kPa, x1 = 0.3102): 1.166 ± 0.029 mPa·s
viscosity (323.15 K, 101 kPa, x1 = 0.4112): 1.265 ± 0.032 mPa·s
viscosity (323.15 K, 101 kPa, x1 = 0.5449): 1.316 ± 0.033 mPa·s
viscosity (323.15 K, 101 kPa, x1 = 0.7286): 1.235 ± 0.031 mPa·s
